Measurements from patent publication US5405837A, “Method for the treatment of neoplastic disease utilizing tiazofurin and ribavirin” (Indiana University Foundation, priority 1993, dated 1995).

Key:
[1] = test system: IMP DH; assay: IMP DH activity in ACI/N rats bearing s.c. transplanted hepatoma 3924A after tiazofurin and subsequent ribavirin; format: in vivo, rat
Method: In this example, ACI/N rats bearing s.c. transplanted hepatoma 3924A were administered daily i.p. injections of 150 mg/kg tiazofurin (trade name Tiazole, Viratek, Inc.) for two days. The rats were then divided into two groups: one received daily i.p. injections of saline, the other received 100 mg/kg ribavirin (trade name Virazole, Viratek, Inc.) for an additional two days.
Tiazofurin reduced the IMP DH activity to 10% and ribavirin maintained the inhibition of IMP DH activity at 20-30% of the control values. The IMP DH activity in the saline-treated rats returned to the untreated levels. (see FIGS. 1 through 5).

[2] = test system: spontaneous leukemia; conditions: in some cases; Cancer Research 36:631-639 (1976); cited from earlier work
[3] = test system: rat bone marrow; assay: Ribavirin alone versus tiazofurin, IMP DH activity and cellularity in rat bone marrow (FIGS. 1 and 2); format: in vivo; conditions: at lower doses
Text: (see FIGS. 1 and 2). […] Bekesi, J. G. et al., Treatment of Spontaneous Leukemia in AKR Mice with Chemotherapy, Immunotherapy, or Interferon, Cancer Research 36:631-639 (1976).
FIG. 1 is a graph of experimental data showing the effect of Tiazofurin and subsequent Ribavirin treatment on IMP DH activity in rat bone marrow.
FIG. 2 is a graph of experimental data showing the effect of Tiazofuran and subsequent Ribavirin treatment on cellularity in rat bone marrow.

Compound	IMP DH activity ([1]; 150 mg/kg tiazofurin daily i.p. for two days, ACI/N rats with hepatoma 3924A) [%]	IMP DH activity, % of the control values ([1]; 100 mg/kg ribavirin daily i.p. for two more days after two days of tiazofurin 150 mg/kg)	antitumor effect [2]	effectiveness when administered alone [3]
NC(=O)c1csc([C@@H]2O[C@H](CO)[C@@H](O)[C@H]2O)n1 [tiazofurin, 2-β-D-ribofuranosylthiazole-4-carboxamide]	10			
NC(=O)c1ncn([C@@H]2O[C@H](CO)[C@@H](O)[C@H]2O)n1 [ribavirin, 1-β-D-ribofuranosyl-1,2,4-triazole-3-carboxamide]		20-30%	little or no antitumor effect	less effective than tiazofurin
